Data as given in paper PMC4721142, “Randomized controlled studies on the efficacy of antiarthritic agents in inhibiting cartilage degeneration and pain associated with progression of osteoarthritis in the rat” (Arthritis Research & Therapy, 2016).
Where “and” joins values, the source holds several entries; their conditions need not be identical. Equal values may be shown once.

Assays:
MMT/MCLT rat model of OA = experiment: MMT/MCLT trial 1 histopathology (same doses); assay type: in vivo; set-up: key to Tibial cartilage degeneration score, 3-zone total: sum of three tibial zone scores (each on 5-point scale); key to Total joint score w/o femur / Total joint score / Total joint score without femur: sum: cartilage degeneration scores + mean osteophyte score
Method in brief: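 Rat knee joints were sectioned in 200-μm steps and stained with toluidine blue. Tibial cartilage degeneration was scored on a 5-point scale in three zones and summed with femoral scores, plus osteophyte scores, to give a total joint score. Results were averaged over three sections.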

NF-κB = experiment: TNF-α-stimulated NF-κB dual luciferase reporter assay in HeLa cells; assay type: cell-based
Method in brief: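 HeLa cells transfected with NF-κB firefly luciferase and Renilla pRLuc-N3 plasmids (8:1), in triplicate; TNF-α stimulation with drug, luminescence read 5 h later by Dual-Glo. Firefly/Renilla ratio normalised to viable transfected cells, expressed as fold over cells without TNF-α or drug.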

MIA rat model of OA = experiment: MIA trial 1 weight bearing (daily s.c. clonidine 0.1, fluocinolone 0.002, morphine 6 mg/kg); assay type: in vivo
Experimental: Weight bearing (WB; incapacitance) was measured five times per day, once per week, using a Linton incapacitance meter (Stoelting Co., Wood Dale, IL, USA). Rats were acclimated to the meter before study initiation, and, similarly, immediately before WB, the animals were placed in the meter and allowed to acclimate for 2–5 minutes. Each hind paw was placed on a separate force plate so that the force exerted by each side could be averaged over a 5-second interval, and the mean of three readings was taken for each data point. Right paw force was compared with that on the left side for each group to confirm that animals were displaying incapacitance and/or pain behavior. Differences in force (left minus right) and right paw force as a percentage of the total force exerted by both paws were determined and compared between groups.
Following isoflurane anesthesia, 50 μl (2 mg) of MIA was injected into the synovial space of the left knee. Animals were randomly assigned to groups, and pain behavior was assessed 7, 14, 21, and 28 days following MIA injection and intervention using WB with the Stoelting incapacitance meter (trial 1) or the dRS test (trials 2 and 3). […] Animals received MIA treatment and then saline control or therapeutic. […] Histopathology was performed at each time point and at study termination. All studies were conducted in accordance with the International Association for the Study of Pain Guidelines and were approved by the Algos Therapeutics, Inc. Institutional Animal Care and Use Committee (IACUC) before initiation. Those running the studies were blind to the treatments. See Additional file 1 for further details. […]
dosing were housed three per cage. Animals had free access to food and water and were maintained […]
The animal colony was maintained at approximately 21 °C. All experiments were conducted in accordance with the International Association for the Study of Pain Guidelines.

[1] = vs saline group, low or only dose
[2] = individual animals, fluocinolone 10 μg/kg, 21 days
[3] = mean, tacrolimus 0.6 mg/kg, fluocinolone 10 μg/kg
[4] = mean, tacrolimus 0.6 mg/kg, fluocinolone 10 μg/kg, listed as fluocinolone
[5] = vs group 1, fluocinolone 10 μg/kg
[6] = vs saline group, tacrolimus 0.6 mg/kg, fluocinolone 10 μg/kg

Clc1cccc(Cl)c1N=C1NCCN1 [Clonidine]
Bone score (MMT/MCLT rat model of OA; mean, low or only dose): 2.88 | Depth ratio any matrix change, mean (MMT/MCLT rat model of OA; mean, low or only dose): 0.35 | Depth ratio any matrix change, zone 2 (MMT/MCLT rat model of OA; mean, low or only dose): 0.16 | Femoral cartilage degeneration score (MMT/MCLT rat model of OA; mean, low or only dose): 1.29 and 1.29 ± 0.20 | Tibial cartilage degeneration score, 3-zone total (MMT/MCLT rat model of OA; mean, low or only dose): 6.13 | Tibial cartilage degeneration score, zone 1 (MMT/MCLT rat model of OA; mean, low or only dose): 4.13 | Tibial cartilage degeneration score, zone 2 (MMT/MCLT rat model of OA; mean, low or only dose): 2.00 | Tibial cartilage degeneration score, zone 3 (MMT/MCLT rat model of OA; mean, low or only dose): 0.00 | Tibial cartilage degeneration width, significant (MMT/MCLT rat model of OA; mean, low or only dose): 691.67 µm | Tibial cartilage degeneration width, total (MMT/MCLT rat model of OA; mean, low or only dose): 1175.00 µm | Tibial osteophyte measure (MMT/MCLT rat model of OA; mean, low or only dose): 540.00 µm | Tibial osteophyte score (MMT/MCLT rat model of OA; mean, low or only dose): 3.92 | Total joint score (MMT/MCLT rat model of OA; mean, low or only dose): 11.33 and 11.33 ± 0.55 | Total joint score w/o femur (MMT/MCLT rat model of OA; mean, low or only dose): 10.04 | % decrease, bone score (MMT/MCLT rat model of OA; [1]): 12% | % decrease, depth ratio mean (MMT/MCLT rat model of OA; [1]): 2% | % decrease, depth ratio zone 2 (MMT/MCLT rat model of OA; [1]): 14% | % decrease, femoral cartilage degeneration score (MMT/MCLT rat model of OA; [1]): 30% | % decrease, osteophyte measure (MMT/MCLT rat model of OA; [1]): -5% | % decrease, osteophyte score (MMT/MCLT rat model of OA; [1]): 0% | % decrease, significant degeneration width (MMT/MCLT rat model of OA; [1]): 5% | % decrease, tibial score 3-zone total (MMT/MCLT rat model of OA; [1]): 6% | % decrease, tibial score zone 1 (MMT/MCLT rat model of OA; [1]): 4% | % decrease, tibial score zone 2 (MMT/MCLT rat model of OA; [1]): 9% | % decrease, tibial score zone 3 (MMT/MCLT rat model of OA; [1]): 100% | % decrease, total degeneration width (MMT/MCLT rat model of OA; [1]): 10% | % decrease, total joint score (MMT/MCLT rat model of OA; [1]): 8% | % decrease, total joint score w/o femur (MMT/MCLT rat model of OA; [1]): 4% | Effective range against NFkB (NF-κB): Not effective | Weight bearing, hours after dosing with significant difference (MIA rat model of OA; day 14): 1 h | Weight bearing, hours after dosing with significant difference (MIA rat model of OA; day 21, BL baseline): 1 h

CC1(C)O[C@@H]2C[C@H]3[C@@H]4C[C@H](F)C5=CC(=O)C=C[C@]5(C)[C@@]4(F)[C@@H](O)C[C@]3(C)[C@]2(C(=O)CO)O1 [Fluocinolone, Fluocinolone Acetonide]
Bone score (MMT/MCLT rat model of OA; [2]): 3.00 and 2.00 and 4.00 and 1.00 | Femoral cartilage degeneration score (MMT/MCLT rat model of OA; [2]): 1.00 and 2.00 and 3.00 and 2.33 and 1.33 | Tibial cartilage degeneration score, 3-zone total (MMT/MCLT rat model of OA; [2]): 4.67 and 5.00 and 6.33 and 7.00 and 7.67 and 5.33 and 6.00 | Tibial cartilage degeneration score, zone 1 (MMT/MCLT rat model of OA; [2]): 3.00 and 4.33 and 3.33 and 4.67 and 4.00 | Tibial cartilage degeneration score, zone 2 (MMT/MCLT rat model of OA; [2]): 1.67 and 2.00 and 1.33 and 2.33 and 2.67 | Tibial cartilage degeneration score, zone 3 (MMT/MCLT rat model of OA; [2]): 0.00 and 0.33 | Tibial cartilage degeneration width, significant (MMT/MCLT rat model of OA; [2]): 466.67 μm and 433.33 μm and 633.33 μm and 766.67 μm and 800.00 μm and 566.67 μm and 666.67 μm | Tibial cartilage degeneration width, total (MMT/MCLT rat model of OA; [2]): 1400.00 μm and 1066.67 μm and 1133.33 μm and 1000.00 μm and 1600.00 μm and 1266.67 μm and 1100.00 μm | Tibial osteophyte measure (MMT/MCLT rat model of OA; [2]): 333.33 μm and 413.33 μm and 280.00 μm and 426.67 μm and 586.67 μm and 400.00 μm and 380.00 μm | Tibial osteophyte score (MMT/MCLT rat model of OA; [2]): 2.00 and 2.33 and 3.00 and 1.33 and 4.67 and 2.67 | Total joint score (MMT/MCLT rat model of OA; [2]): 7.67 and 8.33 and 11.33 and 9.00 and 12.33 and 15.33 and 9.67 and 10.67 | Total joint score without femur (MMT/MCLT rat model of OA; [2]): 6.67 and 7.33 and 9.33 and 6.00 and 10.00 and 12.33 and 8.33 and 8.67 | Bone score (MMT/MCLT rat model of OA; mean, low or only dose): 2.38 | Femoral cartilage degeneration score (MMT/MCLT rat model of OA; mean, low or only dose): 1.33 and 1.33 ± 0.14 | Tibial cartilage degeneration score, 3-zone total (MMT/MCLT rat model of OA; mean, low or only dose): 6.08 | Tibial cartilage degeneration score, zone 1 (MMT/MCLT rat model of OA; mean, low or only dose): 4.17 | Tibial cartilage degeneration score, zone 2 (MMT/MCLT rat model of OA; mean, low or only dose): 1.88 | Tibial cartilage degeneration score, zone 3 (MMT/MCLT rat model of OA; mean, low or only dose): 0.04 | Tibial cartilage degeneration width, significant (MMT/MCLT rat model of OA; mean, low or only dose): 608.33 µm | Tibial cartilage degeneration width, total (MMT/MCLT rat model of OA; mean, low or only dose): 1154.17 µm | Tibial osteophyte measure (MMT/MCLT rat model of OA; mean, low or only dose): 455.00 µm | Tibial osteophyte score (MMT/MCLT rat model of OA; mean, low or only dose): 3.33 | Total joint score (MMT/MCLT rat model of OA; mean, low or only dose): 10.75 and 10.75 ± 0.61 | Total joint score w/o femur (MMT/MCLT rat model of OA; mean, low or only dose): 9.42 | Bone score (MMT/MCLT rat model of OA; [3]): 2.63 | Femoral cartilage degeneration score (MMT/MCLT rat model of OA; [3]): 1.96 ± 0.77 | Tibial cartilage degeneration score, 3-zone total (MMT/MCLT rat model of OA; [3]): 5.83 | Tibial cartilage degeneration score, zone 1 (MMT/MCLT rat model of OA; [3]): 3.88 | Tibial cartilage degeneration score, zone 2 (MMT/MCLT rat model of OA; [3]): 1.92 | Tibial cartilage degeneration score, zone 3 (MMT/MCLT rat model of OA; [3]): 0.04 | Tibial cartilage degeneration width, significant (MMT/MCLT rat model of OA; [3]): 595.83 μm | Tibial cartilage degeneration width, total (MMT/MCLT rat model of OA; [3]): 1212.50 μm | Tibial osteophyte measure (MMT/MCLT rat model of OA; [3]): 394.17 μm | Tibial osteophyte score (MMT/MCLT rat model of OA; [3]): 2.75 | Total joint score (MMT/MCLT rat model of OA; [3]): 10.54 ± 0.88 | Total joint score w/o femur (MMT/MCLT rat model of OA; [3]): 8.58 | Femoral cartilage degeneration score (MMT/MCLT rat model of OA; [4]): 1.96 | Total joint score (MMT/MCLT rat model of OA; [4]): 10.54 | % increase, area of viable cartilage matrix (MMT/MCLT rat model of OA; tacrolimus 0.3 mg/kg, fluocinolone 5 ug/kg): 17% | % increase, area of viable cartilage matrix (MMT/MCLT rat model of OA; tacrolimus 0.6 mg/kg, fluocinolone 10 ug/kg): 20% | Percentage, bone score (MMT/MCLT rat model of OA; [5]): 0.19 | Percentage, femoral cartilage degeneration score (MMT/MCLT rat model of OA; [5]): −0.07 | Percentage, osteophyte measure (MMT/MCLT rat model of OA; [5]): 0.23 | Percentage, osteophyte score (MMT/MCLT rat model of OA; [5]): 0.30 | Percentage, significant degeneration width (MMT/MCLT rat model of OA; [5]): 0.18 | Percentage, tibial score zone 1 (MMT/MCLT rat model of OA; [5]): 0.10 | Percentage, tibial score zone 2 (MMT/MCLT rat model of OA; [5]): 0.13 | Percentage, tibial score zone 3 (MMT/MCLT rat model of OA; [5]): 0.00 | Percentage, total degeneration width (MMT/MCLT rat model of OA; [5]): 0.08 | Percentage, total joint score (MMT/MCLT rat model of OA; [5]): 0.14 | Percentage, total joint score without femur (MMT/MCLT rat model of OA; [5]): 0.18 | % decrease, bone score (MMT/MCLT rat model of OA; [1]): 27% | % decrease, femoral cartilage degeneration score (MMT/MCLT rat model of OA; [1]): 27% | % decrease, osteophyte measure (MMT/MCLT rat model of OA; [1]): 11% | % decrease, osteophyte score (MMT/MCLT rat model of OA; [1]): 15% | % decrease, significant degeneration width (MMT/MCLT rat model of OA; [1]): 16% | % decrease, tibial score 3-zone total (MMT/MCLT rat model of OA; [1]): 7% | % decrease, tibial score zone 1 (MMT/MCLT rat model of OA; [1]): 3% | % decrease, tibial score zone 2 (MMT/MCLT rat model of OA; [1]): 15% | % decrease, tibial score zone 3 (MMT/MCLT rat model of OA; [1]): 0% | % decrease, total degeneration width (MMT/MCLT rat model of OA; [1]): 12% | % decrease, total joint score (MMT/MCLT rat model of OA; [1]): 13% | % decrease, total joint score w/o femur (MMT/MCLT rat model of OA; [1]): 10% | % decrease, bone score (MMT/MCLT rat model of OA; [6]): 19% | % decrease, femoral cartilage degeneration score (MMT/MCLT rat model of OA; [6]): -7% | % decrease, osteophyte measure (MMT/MCLT rat model of OA; [6]): 23% | % decrease, osteophyte score (MMT/MCLT rat model of OA; [6]): 30% | % decrease, significant degeneration width (MMT/MCLT rat model of OA; [6]): 18% | % decrease, tibial score 3-zone total (MMT/MCLT rat model of OA; [6]): 11% | % decrease, tibial score zone 1 (MMT/MCLT rat model of OA; [6]): 10% | % decrease, tibial score zone 2 (MMT/MCLT rat model of OA; [6]): 13% | % decrease, tibial score zone 3 (MMT/MCLT rat model of OA; [6]): 0% | % decrease, total degeneration width (MMT/MCLT rat model of OA; [6]): 8% | % decrease, total joint score (MMT/MCLT rat model of OA; [6]): 14% | % decrease, total joint score w/o femur (MMT/MCLT rat model of OA; [6]): 18% | Weight bearing, hours after dosing with significant difference (MIA rat model of OA; day 21, BL baseline): BL^b, 1
